# Data from patent US20100189648A1, “INHIBITORS FOR DISRUPTING THE INTERACTION OF UBIQUITINATION RELATED ENZYMES AND USES THEREOF” (priority 2006, published 2010).
# Where two headings read alike, the source gives them in different places.
# Legend:
# Format in all cases: cell-based, human
# SKOV3 = assay: MTT survival assay, ovarian cancer cell line (SKOV3); settings: SKOV3 (first table)
# Procedure: (§1) The effect of the above identified compounds on anti-tumor activity in human carcinoma cells was determined by the MTT survival assay. The MTT assay is a commonly used method in evaluation of cell survival, based on the ability of viable cells to convert MTT (MTT, Sigma, Cat No. 044K5307), a soluble tetrazolium salt [3-(4,5-dimethylthuazole-2-yl)-2,5 diphenyl tetrazolium bromide], into an insoluble formazan precipitate, which is quantitated by spectrophotometry following solubilization in dimethyl sulfoxide (DMSO).
# (§2) In brief, different carcinoma cells were treated with negative control, various test articles at different concentration, and positive control (DDP), in 96-well tissue culture dishes. Each test article at different concentration is repeated 3 times.
# (§3) Different carcinoma cells were diluted with 10% FBS and RPM1640 or MEM media to a concentration of 3-5×10^4 per ml suspension. 100 microliter of cells were incubated in each well in 96-well tissue culture dishes at 37 C. The cells were incubated at 37 C on the first day. On the second day, media supernatant was removed and replaced with media and different concentration of test articles (100 microliter in each well). Three Negative control wells and three positive control (DDP) wells were also included. The 96-well plate were incubated at 37 C for another 68 hours. After 68 hours, supernatant of each well was removed. 100 microliter of 1 mg/ml MTT diluted in PBS was injected into each well. The cells were incubated at 37 C for another 4 hours. The cells were then solubilized in 150 microliter DMSO, mixed for 10 minutes and absorbance readings were taken using Microplate reader Bio-Rad Model 550 at 570 nm. IR (cell growth inhibition rate) % was calculated as (OD570 of negative control-OD570 with test article)/OD570 of negative control. IC50 (cell 50% inhibition concentration) at 95% confidence level was calculated with Bliss method.
# Hela cells = assay: MTT survival assay, cervical cancer line (Hela cells); settings: for IC50: Homo sapiens
# Procedure: as §1, §2, §3
# A459 = assay: MTT survival assay, lung cancer cell line (A459); settings: A459; for IC50: Homo sapiens
# Procedure: as §1, §2, §3
# MCF-7 = assay: MTT survival assay, breast cancer cell line (MCF-7); settings: for IC50: Homo sapiens
# Procedure: as §1, §2, §3
# SMMC-7721 = assay: MTT survival assay, liver cancer cell line (SMMC-7721); settings: SMMC-7721; for IC50: Homo sapiens
# Procedure: as §1, §2, §3
# U251 = assay: MTT survival assay, glioma cell line (brain tumor U251); settings: U251 (first table)
# Procedure: as §1, §2, §3
# [1] = 95% confidence limits of IC50, read-out: IC50 (95% confidence level), interval
# [2] = Bliss method, unit not printed (concentrations in μg/ml), read-out: IC50 (95% confidence level)
compound,measurement,setting,value
O=C(Nc1ccnc2[nH]ccc12)c1cc2ccccc2s1 [Mol 11],IC50,"SKOV3; Homo sapiens, SK-OV-3, Bliss method, unit not printed (concentrations in μg/ml), read-out: IC50 (95% confidence level)",29 µg/mL
same,IR (%),SKOV3; 3.125 μg/ml,0%
same,OD(A570 nm),SKOV3; 3.125 μg/ml,0.753 ± 0.074
same,IR (%),SKOV3; 6.25 μg/ml,0.9%
same,OD(A570 nm),SKOV3; 6.25 μg/ml,0.694 ± 0.043
same,IR (%),SKOV3; 12.5 μg/ml,4.1%
same,OD(A570 nm),SKOV3; 12.5 μg/ml,0.671 ± 0.063
same,IR (%),SKOV3; 25 μg/ml,45.0%
same,OD(A570 nm),SKOV3; 25 μg/ml,0.385 ± 0.017
same,IR (%),SKOV3; 50 μg/ml,55.1%
same,OD(A570 nm),SKOV3; 50 μg/ml,0.314 ± 0.041
same,IR (%),SKOV3; 100 μg/ml,86.0%
same,OD(A570 nm),SKOV3; 100 μg/ml,0.098 ± 0.010
same,IR (%),Hela cells; 0.41 μg/ml,0.7%
same,OD(A570 nm),Hela cells; 0.41 μg/ml,0.738 ± 0.080
same,OD(A570 nm),Hela cells; 1.23 μg/ml,0.790 ± 0.037
same,IR (%),Hela cells; 3.70 μg/ml,2.6%
same,OD(A570 nm),Hela cells; 3.70 μg/ml,0.723 ± 0.032
same,IR (%),Hela cells; 11.11 μg/ml,12.0%
same,OD(A570 nm),Hela cells; 11.11 μg/ml,0.653 ± 0.134
same,IR (%),Hela cells; 33.33 μg/ml,61.9%
same,OD(A570 nm),Hela cells; 33.33 μg/ml,0.283 ± 0.047
same,IR (%),Hela cells; 100 μg/ml,80.5%
same,OD(A570 nm),Hela cells; 100 μg/ml,0.145 ± 0.031
same,IC50,Hela cells; [1],26.8 to 38.3 µg/mL
same,IC50,Hela cells; [2],31.9 µg/mL
same,IR (%),A459; 3.125 μg/ml,8.6%
same,OD(A570 nm),A459; 3.125 μg/ml,0.583 ± 0.015
same,IR (%),A459; 6.25 μg/ml,26.1%
same,OD(A570 nm),A459; 6.25 μg/ml,0.471 ± 0.001
same,IR (%),A459; 12.5 μg/ml,31.2%
same,OD(A570 nm),A459; 12.5 μg/ml,0.438 ± 0.051
same,IR (%),A459; 25 μg/ml,64.0%
same,OD(A570 nm),A459; 25 μg/ml,0.230 ± 0.040
same,IR (%),A459; 50 μg/ml,76.1%
same,OD(A570 nm),A459; 50 μg/ml,0.152 ± 0.017
same,IR (%),A459; 100 μg/ml,83.1%
same,OD(A570 nm),A459; 100 μg/ml,0.108 ± 0.013
same,IC50,A459; [1],19.1 to 19.8 µg/mL
same,IC50,A459; [2],19.4 µg/mL
same,IR (%),MCF-7; 3.125 μg/ml,0%
same,OD(A570 nm),MCF-7; 3.125 μg/ml,0.903 ± 0.194
same,IR (%),MCF-7; 6.25 μg/ml,21.2%
same,OD(A570 nm),MCF-7; 6.25 μg/ml,0.711 ± 0.045
same,IR (%),MCF-7; 12.5 μg/ml,16.6%
same,OD(A570 nm),MCF-7; 12.5 μg/ml,0.752 ± 0.164
same,IR (%),MCF-7; 25 μg/ml,21.9%
same,OD(A570 nm),MCF-7; 25 μg/ml,0.705 ± 0.076
same,IR (%),MCF-7; 50 μg/ml,45.7%
same,OD(A570 nm),MCF-7; 50 μg/ml,0.490 ± 0.093
same,IR (%),MCF-7; 100 μg/ml,47.0%
same,OD(A570 nm),MCF-7; 100 μg/ml,0.478 ± 0.079
same,IC50,"MCF-7; MCF7, 95% confidence limits of IC50, read-out: IC50 (95% confidence level), interval",66.9 to 154 µg/mL
same,IC50,"MCF-7; MCF7, Bliss method, unit not printed (concentrations in μg/ml), read-out: IC50 (95% confidence level)",94.2 µg/mL
same,IC50,SMMC-7721; [1],14.3 to 15.5 µg/mL
same,IC50,SMMC-7721; [2],14.9 µg/mL
same,IR (%),SMMC-7721; 3.125 μg/ml,37.0%
same,OD(A570 nm),SMMC-7721; 3.125 μg/ml,0.277 ± 0.018
same,IR (%),SMMC-7721; 6.25 μg/ml,35.1%
same,OD(A570 nm),SMMC-7721; 6.25 μg/ml,0.286 ± 0.092
same,IR (%),SMMC-7721; 12.5 μg/ml,53.1%
same,OD(A570 nm),SMMC-7721; 12.5 μg/ml,0.207 ± 0.007
same,IR (%),SMMC-7721; 25 μg/ml,53.5%
same,OD(A570 nm),SMMC-7721; 25 μg/ml,0.205 ± 0.018
same,IR (%),SMMC-7721; 50 μg/ml,63.0%
same,OD(A570 nm),SMMC-7721; 50 μg/ml,0.163 ± 0.009
same,IR (%),SMMC-7721; 100 μg/ml,68.1%
same,OD(A570 nm),SMMC-7721; 100 μg/ml,0.141 ± 0.006
same,IC50,"U251; Homo sapiens, U-251, Bliss method, unit not printed (concentrations in μg/ml), read-out: IC50 (95% confidence level)",4340 µg/mL
same,IR (%),U251; 3.125 μg/ml,9.1%
same,OD(A570 nm),U251; 3.125 μg/ml,0.797 ± 0.016
same,IR (%),U251; 6.25 μg/ml,13.5%
same,OD(A570 nm),U251; 6.25 μg/ml,0.758 ± 0.019
same,IR (%),U251; 12.5 μg/ml,15.1%
same,OD(A570 nm),U251; 12.5 μg/ml,0.744 ± 0.045
same,IR (%),U251; 25 μg/ml,20.5%
same,OD(A570 nm),U251; 25 μg/ml,0.697 ± 0.053
same,IR (%),U251; 50 μg/ml,19.1%
same,OD(A570 nm),U251; 50 μg/ml,0.709 ± 0.054
same,IR (%),U251; 100 μg/ml,25.8%
same,OD(A570 nm),U251; 100 μg/ml,0.650 ± 0.006
